The target in one assay is T1, Y160W mutant/Pi complex (Escherichia coli, UniProt P0ABP8, Y161W).
T1 construct: made in house; host or cells: E. coli DH5α-T1
The experiment in a line: Thermophoretic (MST) titrations with formycin A. Also on record: species or system E. coli. How it is done:
(§1) Measurements were performed with Monolith NT115 (NanoTemper). Enzyme was labelled with NT647 fluorescent dye (NanoTemper) according to the protocol provided by the manufacturer. Labelled proteins show fluorescence excitation and emission maxima of approximately 650 and 670 nm, respectively. The series of titrations were performed at a constant protein concentration. Both proteins (WT and mutant), and ligands were dissolved in 50 mM Tris/HCl pH 7.6 buffer, measurements were performed at 25 °C. […] In the pre-experiments, it was carefully checked for both proteins, WT and Y160W mutant whether any sign of aggregation or inactivation occurs, and if mutant behaviour is similar to that of the WT enzyme. An example of the raw thermophoretic curves obtained with the relative heating laser power at 60% and 80% are shown in the Supplementary Information (Figure S7).
(§2) Experiments of the nucleoside analogue binding were performed in the presence of saturating concentration of phosphate, i.e. 50 mM. For both, WT PNP and Y160W mutant seven repetitions of each curve were measured, for a single power of the heating laser. The power of the heating laser at which the strongest change of the thermophoretic signal upon ligand binding occurs was selected, namely 80% for both enzyme variants. The raw MST traces, for two highest tested laser powers, 60% and 80%, are presented in the Supplementary information (Figure S7) Protein concentration in the capillary was constant and equal to 0.215 μM and 0.0751 μM for the WT protein and the Y160W mutant, respectively. Series of titrations were analysed globally using the DynaFit4 program[40] (see below).
(§3) Three models were taken into account in analysis of binding curves: model with one (first equation below), two (first two equations) and three binding sites. P+L⇔PLwithKd1PL+L⇔PLLwithKd2PLL+L⇔PLLLwithKd3
(§4) The model with one binding site is based on the assumption that all monomers are equivalent, and there is no cooperation between them. In the model with two binding sites the basic functional unit of the protein is a dimer, possible non-equivalence of binding sites or cooperativity between active sites in the dimer are taken into account (in the case of no cooperativity dissociation constants should be related statistically: Kd2 = 4Kd1), the dimers within hexamer are equivalent. The model with three binding sites is based on the crystallographic structures of binary and ternary complexes of PNP with ligands, where two of the dimers are in the “open-closed” conformation, but the third dimer is symmetrical, in the “open-open” conformation. Thus, active sites in the open conformation belonging to “open-closed” and “open-open” dimer may not be equivalent. […]
(§5) Titration series were analysed globally, always starting from the simplest, one-binding-site model. […] For all tested models the Akaike information criterion[23] was also calculated. […] Analysed models were fitted to the raw data, whereas graphs presented in this study were prepared from the normalised data and the fitted curves. […] Responses are defined as changes in a measured physical quantity related to the formation of subsequent protein–ligand complexes: intrinsic protein fluorescence intensity, fluorescence intensity of the dye, heat and ellipticity for fluorimetric, thermophoretic, calorimetric and CD titrations, respectively. […]

A further assay addresses T2, WT PNP/Pi complex (Escherichia coli, UniProt P0ABP8).
T2 construct: made in house
The experiment in a line: Thermophoretic (MST) titrations with formycin A. Also on record: species or system E. coli. The settings on record: two-binding-site model, 50 mM phosphate, pH 7.6, 25 °C. How it is done: as §1, §2, §3, §4, §5

We go through one compound from paper PMC8160210, “Single tryptophan Y160W mutant of homooligomeric E. coli purine nucleoside phosphorylase implies that dimers forming the hexamer are functionally not equivalent” (Scientific Reports, 2021).

The structures appear in SMILES notation. pKd: −log10 of the molar value. Like-named read-outs stand apart in the source and are kept apart here.

Take `Nc1ncnc2c([C@@H]3O[C@H](CO)[C@@H](O)[C@H]3O)[nH]nc12` [FA, Formycin A]: the pKd was 6.86 on Y160W mutant/Pi complex (Kd1 ± SD, three-binding-site model, 50 mM phosphate, pH 7.6, 25 °C); 2.76 on Y160W mutant/Pi complex (Kd3 ± SD, three-binding-site model, 50 mM phosphate, pH 7.6, 25 °C); 3.96 at Y160W mutant/Pi complex (read-out: Kd2 ± SD, three-binding-site model, 50 mM phosphate, pH 7.6, 25 °C); 7.97 on WT PNP/Pi complex (Kd1 ± SD); 3.73 at WT PNP/Pi complex (Kd3 ± SD).
